Experimental data published in article PMC7796460, “Relation of Metal-Binding Property and Selective Toxicity of 8-Hydroxyquinoline Derived Mannich Bases Targeting Multidrug Resistant Cancer Cells” (Cancers, 2021).
Read-outs that look alike come from different tables or passages of the source.

Legend:
[1] = test system: MES-SA cells; test: MTT viability assay, MES-SA; type: cell-based, human
Excerpt: (§1) MDCK II canine kidney cells, A431 epidermoid carcinoma cells, the human uterine sarcoma cell lines MES-SA and the doxorubicin selected MES-SA-Dx5 were obtained from ATCC (MDCK II: No. CRL-2936™, A431: No. CRL-1555™, MES-SA: No. CRL-1976™, MES-SA/Dx5: No. CRL-1977™). ABCB1 was expressed in A431 and MES-SA cells using lentiviral transduction. The human cervix carcinoma cell line KB-3-1 and the vinblastine selected KB-v1were kind gifts from Dr. Michael M. Gottesman, National Institutes of Health. The phenotype of the resistant cells was verified using cytotoxicity assays. MDCK-B1 and MDCK-MM were established by the Sleeping Beauty transposon-based gene delivery system. OVCAR-8 and NCI-ADRres cells (obtained from the Division of Cancer Treatment and Diagnosis (DCTD) Tumor Repository (National Cancer Institute, Frederick, MD, USA)) were cultivated in RPMI-1640 (Sigma Aldrich, Budapest, Hungary), and other cell lines were cultivated in Dulbecco’s Modified Eagle Medium (DMEM, Sigma Aldrich, Budapest, Hungary), supplemented with 10% fetal bovine serum, 5 mM glutamine, and 50 unit/mL penicillin and streptomycin (Life Technologies, Carlsbad, CA, USA). All cell lines were cultivated at 37 °C, 5% CO2.
(§2) MTT viability assays were performed as described earlier with minor modifications. Briefly, cells were seeded into 96-well tissue culture plates (Sarstedt, Newton, NC, USA/Orange, Braine-l’Alleud, Belgium) at a density of 5000 cells/well and allowed to attach overnight. Test compounds were added to achieve the required final concentration in a final volume of 100 µL per well. After an incubation period of 72 h, the supernatant was removed and fresh medium containing the MTT reagent (0.083 mg/mL) was added. Incubation with MTT at 37 °C was terminated after 1 h by removing the supernatant and lysing the cells with 100 µL DMSO per well. Viability of the cells was measured spectrophotometrically based on the absorbance values at 540 nm using either a Perkin Elmer Victor X3 or an EnSpire microplate reader. Data were background corrected by subtraction of the signal obtained from unstained cell lysates and normalized to untreated cells. Curves were fitted by Prism software (GraphPad Software Inc., San Diego, CA, USA) using the sigmoidal dose-response model (comparing variable and fixed slopes). […] Significance was calculated using unpaired t-tests; results are given as *: p ≤ 0.05, **: p ≤ 0.01, ***: p ≤ 0.001, ****: p ≤ 0.0001.

[2] = test system: MES-SA/Dx5 cells; test: MTT viability assay, MES-SA/Dx5; type: cell-based, human; conditions: for SR: Table S1, IC50 Pgp negative divided by Pgp positive cells; for SR_TQ: Table S1, presence of 1 µM TQ
Excerpt: as §1, §2

[3] = pKa by UV-visible spectrophotometric titrations; type: physicochemical; conditions: 0.2 M KCl (ionic strength), T = 25 °C, I = 0.2 M (KCl)
[4] = test system: MES-SA cells; test: ROS determination with DCFDA, MES-SA; type: cell-based, human; conditions: 2 h
Method: (§3) Measurements were performed as described earlier. Briefly, cells were harvested, washed with PBS, and incubated with 10 µM DCFDA in a water bath shaker at 37 °C for 30 min in a density of 3 × 10^6 cells/mL. After washing with PBS, cells were seeded to 96-well plates in PBS in a density of 2 × 10^4 cells/well. Following the measurement of the basal fluorescence, test compounds were added in different concentrations and the fluorescence of the samples was followed at time intervals of 10 min. DCFDA solution in buffer was used as a cell free control to test for interaction of the test compounds with DCFDA. Data were analyzed as fold change of fluorescence compared to basal levels and untreated cells. Significance was calculated using unpaired t-tests; results are given as *: p ≤ 0.05, **: p ≤ 0.01, ***: p ≤ 0.001, ****: p ≤ 0.0001.
(§4) Table S3: Characterization of intracellular ROS production with the DCFDA assay for P -gp negative MES-SA and P-gp positive MES-SA/Dx5 cells. Fold changes in fluorescence are shown after a 2 h with the investigated 8 -hydroxyquinoline ligands. Data S-refer to Figure 7 and allow […]
(§5) concentration range from 6.25µ M to 50µ M. Fold change of fluorescence obtained in the presence of 5 mM NAC is given in brackets.

[5] = test system: MES-SA/Dx5 cells; test: ROS determination with DCFDA, MES-SA/Dx5; type: cell-based, human; conditions: 2 h
Method: as §3, §4, §5

[6] = Homo sapiens, MES-SA, Table 2, value outside brackets, read-out: MES-SA (toxicity, Table 2)
[7] = Homo sapiens, MES-SA/Dx5, Table 2, value outside brackets, read-out: MES-SA/Dx5 (toxicity, Table 2)
[8] = Table 2, value outside brackets
[9] = group named in the cell (NmorpholiniumH+, NpiperidiniumH+, NbenzylamineH2+), read-out: pKa (additional)
[10] = Table S1, calculated as ligand equivalents, presence of 1 µM TQ, read-out: IC50 MES-SA_TQ
[11] = Table S1, ligands and in situ preformed complexes, calculated as ligand equivalents, absence of TQ, read-out: IC50 MES-SA
[12] = Table S1, calculated as ligand equivalents, absence of TQ, read-out: IC50 Dx5
[13] = Table S1, calculated as ligand equivalents, presence of 1 µM TQ, read-out: IC50 Dx5_TQ

SMILES | IC50 [1, 6] [nM] | IC50 [2, 7] [nM] | SR MES-SA/Dx5 (Table 2) [2, 8] | IC50 [1, 10] [nM] | IC50 [1, 11] [nM] | SR ([2]; absence of TQ) | IC50 [2, 12] [nM] | IC50 [2, 13] [nM] | SR_TQ [2] | other results
Oc1c(CN2CCCCC2)ccc2ccccc12 [NC-3, 2-(piperidin-1-ylmethyl)naphthalen-1-ol] | 140000 ± 47900 | 163000 ± 16600 | 0.86 |  |  |  |  |  |  | pKa [3, 9]: 10.12 ± 0.01; pKa ([3]; read-out: pKa (OH)): 6.06 ± 0.01
[Fe+3].[O-]c1cccc2cccnc12.[O-]c1cccc2cccnc12.[O-]c1cccc2cccnc12 [1/3 [Fe(Q-1)3]] |  |  |  | 3070 ± 360 | 3310 ± 520 | 1.13 | 2920 ± 800 | 2960 ± 640 | 1.04 | 
[Cu+2].[O-]c1cccc2cccnc12.[O-]c1cccc2cccnc12 [1/2 [Cu(Q-1)2]] |  |  |  | 4140 ± 1200 | 3770 ± 660 | 1.86 | 2030 ± 460 | 2610 ± 440 | 1.58 | 
Oc1ccc(Cl)c2cccnc12 [Compound 5-Cl-Q-1] | 10400 ± 1710 | 9660 ± 2480 | 1.08 |  |  |  |  |  |  | SR MES-SA/Dx5 (Table 2) ([2]; Table 2, value in brackets (Tariquidar as in Table 1)): 1.46; Fold change in fluorescence (DCFDA) ([4]; 6.25 µM): 1.147± 0.32; Fold change in fluorescence (DCFDA) ([4]; 6.25 µM, presence of 5 mM NAC (brackets)): 1.668± 0.35; Fold change in fluorescence (DCFDA) ([4]; 12.5 µM): 1.119± 0.30; Fold change in fluorescence (DCFDA) ([4]; 12.5 µM, presence of 5 mM NAC (brackets)): 1.418± 0.24; Fold change in fluorescence (DCFDA) ([4]; 25 µM): 1.071± 0.35; Fold change in fluorescence (DCFDA) ([4]; 25 µM, presence of 5 mM NAC (brackets)): 1.443± 0.22; Fold change in fluorescence (DCFDA) ([4]; 50 µM): 0.891± 0.34; Fold change in fluorescence (DCFDA) ([4]; 50 µM, presence of 5 mM NAC (brackets)): 1.209± 0.23; Fold change in fluorescence (DCFDA) ([5]; MES-SA/Dx5, 6.25 µM): 1.203± 0.32; Fold change in fluorescence (DCFDA) ([5]; MES-SA/Dx5, 6.25 µM, presence of 5 mM NAC (brackets)): 1.279± 0.21; Fold change in fluorescence (DCFDA) ([5]; MES-SA/Dx5, 12.5 µM): 1.291± 0.48; Fold change in fluorescence (DCFDA) ([5]; MES-SA/Dx5, 12.5 µM, presence of 5 mM NAC (brackets)): 1.187± 0.23; Fold change in fluorescence (DCFDA) ([5]; MES-SA/Dx5, 25 µM): 1.355± 0.46; Fold change in fluorescence (DCFDA) ([5]; MES-SA/Dx5, 25 µM, presence of 5 mM NAC (brackets)): 1.220± 0.22; Fold change in fluorescence (DCFDA) ([5]; MES-SA/Dx5, 50 µM): 1.206± 0.49; Fold change in fluorescence (DCFDA) ([5]; MES-SA/Dx5, 50 µM, presence of 5 mM NAC (brackets)): 1.152± 0.06
Oc1c(CN2CCOCC2)ccc2ccccc12 [NC-2, 2-(morpholino-methyl)naphthalen-1-ol] | 422000 ± 34900 | 562000 ± 36800 | 0.75 |  |  |  |  |  |  | pKa [3, 9]: 6.61 ± 0.02; pKa ([3]; read-out: pKa (OH)): 9.21 ± 0.02
[Cu+2].[O-]c1c(CNCc2ccccc2F)cc(Cl)c2cccnc12.[O-]c1c(CNCc2ccccc2F)cc(Cl)c2cccnc12 [1/2 [Cu(Q-4)2]] |  |  |  | 1360 ± 260 | 1460 ± 160 | 5.03 | 290 ± 39 | 1220 ± 25 | 1.11 | 
[Fe+3].[O-]c1c(CN2CCCCC2)ccc2cccnc12.[O-]c1c(CN2CCCCC2)ccc2cccnc12.[O-]c1c(CN2CCCCC2)ccc2cccnc12 [1/3 [Fe(Q-3)3]] |  |  |  | 1820 ± 710 | 2120 ± 680 | 2.33 | 910 ± 220 | 1450 ± 250 | 1.25 | 
